Measurements as given in patent US7371364B2, “Cyclic peptide and imaging compound compositions and uses for targeted imaging and therapy” (Board of Regents, The University of Texas System, priority 2003, dated 2008).
Positions of bridges follow the written chain, without caps; N, C: chain ends. Cy5.5 = cyanine near-infrared dye Cy5.5, conjugated via its NHS ester to the amino group

What was measured:
[1] = system: human tumor cells; assay: In vitro tumor cell binding study (fluorescence microscopy); assay type: cell-based
Method: All human tumor cell-lines were obtained from American Type Culture Collection (Rockville, Md.) and were maintained at 37° C. in a humidified atmosphere containing 5% CO2 in Dulbecco's Modified Eagle's Medium/Nutrient Mixture F-12 Ham (DMEM/F12) and 10% FBS (Gibco, Grand Island, N.Y.).
Cells were seeded on cover slips in 24-well plates (Becton Dickinson Labware, Franklin Lakes, N.J.) and incubated in DMEM/F12 culture medium (0.5 ml/well) overnight. Cy5.5 and Cy5.5-HWG polypeptide imaging agents were added into each well at the indicated concentrations. For the blocking study, doxycycline was added to the culture medium followed by the addition of Cy5.5-HWG polypeptide imaging agent 1 hour later. After an incubation period of 5-60 minutes at 37° C., cells were washed twice with PBS and incubated in a solution of Sytox Green in 95% ethyl alcohol (1 μM, Molecular Probe, Eugene, Oreg.) for 15 minutes to fix and stain cell nuclei. For staining of MMP expression, cells that were pretreated with Cy5.5-HWG polypeptide and stained with Sytox Green were incubated with anti-MMP antibody (Sigma) (1 mg/ml; 1:200 dilution) for 1 hour at room temperature. The cells were then washed and incubated with Texas Red conjugated go at anti-rabbit IgG (Molecular Probe, 4 μg/ml) at room temperature for 1 hour. Cells were washed again with PBS and the cover slips were mounted for microscopic examination using a DMR microscope (Leica Microsystems, Inc., Brannockburn, Ill.). The microscope was equipped with a 75W Xenon lamp, 775 nm/845 nm, 560 nm/645 nm, and 480 nm/535 nm (Excitation/emission) filters (Chroma Technology Corp., Brattleboro, Vt.), a Hamamatsu B/W Chilled CCD camera (Hamamatsu Photonics K.K., Hamamatsu City, Japan), and Image-Pro Plus 4.5.1 software (Media Cybernetics, Silver Spring, Md.). In the multiple staining images, Cy5.5, MMPs, and Sytox Green were pseudocolored red, green, and blue, respectively.

[2] = system: intratibia PC-3 prostate tumors; assay: In vivo NIR fluorescent imaging with HWG imaging agent; design: species or system mice
Method: Four to six week-old athymic nude mice (18-22 g, Harlan Sprague Dawley, Inc., Indianapolis, Ind.) were housed 5 per cage with sterilized pet chow (Harlan Sprague Dawley) and sterilized water. Animals were maintained in a pathogen-free mouse colony in the Department of Veterinary Medicine at the University of Texas M.D. Anderson Cancer Center. All experiments were performed in accordance with the guidelines of the Institutional Animal Care and Use Committee. Tumor cells were harvested near confluence by incubation with 0.05% trypsin-EDTA. Cells were pelleted by centrifugation at 450×g for 5 minutes and resuspended in sterile PBS. Cells (2-3×10^6/animal) were implanted subcutaneously into the chest wall or the hind legs of the mice. Human PC-3 prostate tumors were obtained by intratibia injection of PC-3 cells into male nude mice. Human U87 glioma tumors were obtained by intracranial injection. In vivo fluorescence imaging was accomplished by illuminating the animal with light from a laser diode (785 nm, 80 mW for IGC; 660 nm, 35 mW for Cy 5.5 dyes) expanded to an approximate 8 cm diameter circular area. The re-emitted fluorescent light was collected by an image intensifier (model F[…], ITT Night Vision, Roanoke, Va.) lens-coupled to a CCD camera (model CH350, Photometrics, Tucson, Ariz.). The imaging was designed so that the field of view could be varied from 3×3 cm to over 12×12 cm by varying the image distance of the 50 mm lens used to focus the image onto the photocathode of the intensifier. The lens was fitted with a holographic notch-plus filter (785 nm center wavelength for ICG and 660 nm center wavelength for Cy5.5 dyes; Kaiser Optical Systems, Inc., Ann Arbor, Mich.) and a bandpass filter (830 nm center wavelength for ICG, 710 nm center wavelength for Cy5.5 dyes) to reject back-scattered and reflected excitation photons. Image acquisition was accomplished using V++ software (Digital Optics, Auckland, New Zealand) and obtained images were stored in uncompressed tagged image file format (tiff). […]

[3] = system: SKBr-3 tumors; assay: as above; design: species or system mice; conditions: 4 days after i.v. injection, 15 nmol per mouse
Method: (§1) Four to six week-old athymic nude mice (18-22 g, Harlan Sprague Dawley, Inc., Indianapolis, Ind.) were housed 5 per cage with sterilized pet chow (Harlan Sprague Dawley) and sterilized water. Animals were maintained in a pathogen-free mouse colony in the Department of Veterinary Medicine at the University of Texas M.D. Anderson Cancer Center. All experiments were performed in accordance with the guidelines of the Institutional Animal Care and Use Committee. Tumor cells were harvested near confluence by incubation with 0.05% trypsin-EDTA. Cells were pelleted by centrifugation at 450×g for 5 minutes and resuspended in sterile PBS. Cells (2-3×10^6/animal) were implanted subcutaneously into the chest wall or the hind legs of the mice. Human PC-3 prostate tumors were obtained by intratibia injection of PC-3 cells into male nude mice. Human U87 glioma tumors were obtained by intracranial injection.
(§2) In vivo fluorescence imaging was accomplished by illuminating the animal with light from a laser diode (785 nm, 80 mW for IGC; 660 nm, 35 mW for Cy 5.5 dyes) expanded to an approximate 8 cm diameter circular area. The re-emitted fluorescent light was collected by an image intensifier (model FS9910C, ITT Night Vision, Roanoke, Va.) lens-coupled to a CCD camera (model CH350, Photometrics, Tucson, Ariz.). The imaging was designed so that the field of view could be varied from 3×3 cm to over 12×12 cm by varying the image distance of the 50 mm lens used to focus the image onto the photocathode of the intensifier. The lens was fitted with a holographic notch-plus filter (785 nm center wavelength for ICG and 660 nm center wavelength for Cy5.5 dyes; Kaiser Optical Systems, Inc., Ann Arbor, Mich.) and a bandpass filter (830 nm center wavelength for ICG, 710 nm center wavelength for Cy5.5 dyes) to reject back-scattered and reflected excitation photons. Image acquisition was accomplished using V++ software (Digital Optics, Auckland, New Zealand) and obtained images were stored in uncompressed tagged image file format (tiff). Data processing and analysis was accomplished using Matlab software (The Math Works, Inc., Natick, Mass.).

[4] = system: KS1767 tumors; assay: as above; design: species or system mice; conditions: subcutaneous KS1767 tumors, 15 nmol per mouse
Method: as §1, §2

[5] = system: HT1080 tumor; assay: as above; design: species or system mice; conditions: subcutaneous HT1080 tumor, 27 hours after i.v. injection, 15 nmol/mouse
Method: as §1, §2

[6] = system: human glioma U87 tumor; assay: as above; design: species or system mice
Method: as §1, §2

[7] = system: MDA-MB-468 tumors; assay: as above; design: species or system mice; conditions: subcutaneous MDA-MB-468 tumors, 15 nmol per mouse
Method: as §1, §2

## Cy5.5-c(KAHWGFTLD)NH2 ({Cy5.5}-KAHWGFTLD-NH2; lactam 1-9)
[1]; SKBr-3, HT1080, MDA-MB-435, MDA-MB-468, U87 (PC-3 and U87 for the Tyr analogue), 37° C.
  Binding to tumor cells: bound
[1]; all cell lines tested
  Co-localization with MMPs (MMP-2, MMP-8, MMP-9 staining): co-localized with MMPs
[2]; control leg, i.v. injection of imaging agent
  Fluorescent signal in contra lateral tibia region preinjected with saline: no fluorescent signal was detected
[2]; intratibia PC-3, no lesion by X-ray, 3 days after inoculation, 24 and 48 hours after injection
  Visualization of small tumor in NIR image: clearly visualized
[2]; intratibia PC-3 inoculated 3 days earlier, images 24 hours after injection
  Presence of tumors shown in NIR images (specificity versus scrambled peptide): clearly showed the presence of tumors
[3]
  Fluorescent signal in tumor: strong fluorescent signal
[4]
  Visualization of tumor in NIR image: clearly visualized
[5]
  Visualization of tumor in NIR image: clearly visualized with minimal background signal
[6]; intracranial U87, tumor 3-4 mm, 12 days after inoculation, 38 hours after injection, intact animal and excised brain
  Binding and retention in the tumor (NIR image): clearly depicted
[6]; subcutaneous U87, lesion less than 2 mm, 3 days after inoculation, 24 and 48 hours after injection
  Visualization of small tumor in NIR image: clearly visualized
[7]
  Visualization of tumor in NIR image: clearly visualized
